Literature values as cited in US12527811B2, “Defibrotide for the prevention and treatment of cytokine release syndrome and neurotoxicity associated with immunodepletion” (priority 2018, dated 2026).
Like-named read-outs stand apart in the source and are kept apart here.

Key:
[1] = ZUMA-1, one hundred and one adult patients with refractory aggressive B-cell NHL; cited from earlier work
IL-6R = molecular target: T1, IL-6R (Homo sapiens, UniProt P08887); settings: read-out: affinity (Kd) for IL-6R; cited from earlier work
T1 sequence (P08887 20-468): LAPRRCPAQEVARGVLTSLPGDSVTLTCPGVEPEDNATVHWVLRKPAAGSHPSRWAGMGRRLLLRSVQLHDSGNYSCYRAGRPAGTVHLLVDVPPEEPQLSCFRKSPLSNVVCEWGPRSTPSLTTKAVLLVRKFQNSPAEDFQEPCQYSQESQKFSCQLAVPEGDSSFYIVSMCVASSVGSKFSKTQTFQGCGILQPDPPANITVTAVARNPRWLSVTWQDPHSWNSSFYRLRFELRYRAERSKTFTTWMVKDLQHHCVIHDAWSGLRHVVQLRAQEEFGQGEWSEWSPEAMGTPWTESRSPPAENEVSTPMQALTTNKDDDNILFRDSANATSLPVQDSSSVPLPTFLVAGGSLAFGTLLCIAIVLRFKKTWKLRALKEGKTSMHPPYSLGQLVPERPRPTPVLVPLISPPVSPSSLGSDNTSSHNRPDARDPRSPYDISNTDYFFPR

[2] = JULIET, ninety-three adult patients with relapsed or refractory DLBLC; cited from earlier work
IL-6 = IL-6 (Homo sapiens, UniProt P05231); settings: cited from earlier work
[3] = in vivo; cited from earlier work

Chain of IL-6 (P05231 30-212): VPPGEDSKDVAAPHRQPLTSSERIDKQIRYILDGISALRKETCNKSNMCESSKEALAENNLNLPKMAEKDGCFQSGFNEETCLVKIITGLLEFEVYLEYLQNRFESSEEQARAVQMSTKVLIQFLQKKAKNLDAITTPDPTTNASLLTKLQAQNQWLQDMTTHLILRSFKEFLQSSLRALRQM

## Axicabtagene ciloleucel [Axi-cel]
[1]
  rate of grade>3 CRES: 28%
  rate of grade>3 CRS: 13%

## tocilizumab [reference compound]
IL-6R
  Kd: 2.54 nM

## tisagenlecleucel
[2]
  rate of grade>3 CRES: 12%
  rate of grade>3 CRS: 22%

## siltuximab
IL-6
  Kd: ~0.001 nM
[3]
  effect on CRS symptoms: rapid reversal of CRS symptoms in most patients

## IL-6: cytokine that binds IL-6R
IL-6R
  Kd: ~1 nM
